Measurements: patent EP4629837B1, “ANIMAL FEED COMPOSITION HAVING A COMBINATION OF FENUGREEK AND NEOHESPERIDIN DIHYDROCHALCONE (NHDC) TO IMPROVE PERFORMANCE OF ANIMALS OR STIMULATE THEIR SWEET TASTE RECEPTORS” (ADM International Sàrl, priority 2022, dated 2024)
Where a SMILES comes first, the peptide text is derived from it.

What was measured:
[1] = target: T1, pig sweet taste receptors (Sus scrofa, UniProt I1ZBR6+Q0EF93); test: Activation of heterologously expressed pig sweet taste receptors in HEK293T-PEAK rapid Gα15 cells (Fluo-4 AM Ca2+ fluorescence, dose-response); assay type: cell-based; settings: single compounds and 1:4 combination, heterologous system of Example 1
T1 sequence (I1ZBR6 entry or part of it): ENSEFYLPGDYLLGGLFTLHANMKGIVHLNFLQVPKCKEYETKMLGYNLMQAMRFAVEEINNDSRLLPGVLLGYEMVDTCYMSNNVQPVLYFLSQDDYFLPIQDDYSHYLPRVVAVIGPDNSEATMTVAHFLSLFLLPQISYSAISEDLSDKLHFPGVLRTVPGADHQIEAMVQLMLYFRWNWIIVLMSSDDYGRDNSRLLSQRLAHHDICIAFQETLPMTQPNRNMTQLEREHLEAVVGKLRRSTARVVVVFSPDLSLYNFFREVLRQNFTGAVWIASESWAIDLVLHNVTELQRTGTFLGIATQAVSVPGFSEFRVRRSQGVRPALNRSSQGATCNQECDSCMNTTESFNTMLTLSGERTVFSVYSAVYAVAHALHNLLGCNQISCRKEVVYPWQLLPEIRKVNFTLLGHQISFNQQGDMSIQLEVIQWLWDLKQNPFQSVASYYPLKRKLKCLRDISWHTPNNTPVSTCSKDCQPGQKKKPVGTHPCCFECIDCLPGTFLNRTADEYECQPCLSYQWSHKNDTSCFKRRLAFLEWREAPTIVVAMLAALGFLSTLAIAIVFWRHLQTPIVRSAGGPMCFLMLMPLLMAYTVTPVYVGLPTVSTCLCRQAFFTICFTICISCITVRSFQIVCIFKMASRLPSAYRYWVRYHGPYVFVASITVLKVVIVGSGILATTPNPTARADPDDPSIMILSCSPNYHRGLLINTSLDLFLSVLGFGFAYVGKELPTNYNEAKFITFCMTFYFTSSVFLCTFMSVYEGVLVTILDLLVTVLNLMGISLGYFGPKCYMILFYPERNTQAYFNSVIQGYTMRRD
T1 sequence (Q0EF93 entry or part of it): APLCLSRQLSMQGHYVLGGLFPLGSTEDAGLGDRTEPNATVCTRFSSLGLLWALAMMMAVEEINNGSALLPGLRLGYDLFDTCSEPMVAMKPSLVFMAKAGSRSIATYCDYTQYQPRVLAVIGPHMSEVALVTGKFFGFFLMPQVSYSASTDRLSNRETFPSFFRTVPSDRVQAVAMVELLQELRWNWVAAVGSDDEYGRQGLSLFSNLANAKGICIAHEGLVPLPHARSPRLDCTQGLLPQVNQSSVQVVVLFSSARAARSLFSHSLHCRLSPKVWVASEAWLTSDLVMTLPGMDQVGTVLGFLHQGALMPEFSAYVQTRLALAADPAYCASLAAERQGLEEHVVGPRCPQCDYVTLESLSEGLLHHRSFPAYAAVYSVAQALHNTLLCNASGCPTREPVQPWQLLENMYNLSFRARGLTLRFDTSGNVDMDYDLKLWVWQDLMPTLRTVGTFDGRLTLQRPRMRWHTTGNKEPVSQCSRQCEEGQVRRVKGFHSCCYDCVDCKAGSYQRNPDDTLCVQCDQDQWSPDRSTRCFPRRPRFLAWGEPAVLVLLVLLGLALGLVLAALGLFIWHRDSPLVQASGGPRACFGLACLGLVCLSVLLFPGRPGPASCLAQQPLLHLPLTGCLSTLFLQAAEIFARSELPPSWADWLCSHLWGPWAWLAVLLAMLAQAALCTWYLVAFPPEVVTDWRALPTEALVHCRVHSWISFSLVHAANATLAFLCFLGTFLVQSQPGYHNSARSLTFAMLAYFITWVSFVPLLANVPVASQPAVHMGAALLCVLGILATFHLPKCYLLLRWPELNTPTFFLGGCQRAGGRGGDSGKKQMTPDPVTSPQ
Protocol: For the production of pig sweet taste receptor constructs, full length coding sequences of pig taste receptors T1R2 and T1R3 of pigs were synthesized and ligated into modified expression vectors pcDNA3/TO and pcDNA5/FRT/PM for evaluation. Amino-terminal sst-tags were added to facilitate cell membrane targeting, cytomegalovirus (CMV) promoters were added to control gene expression, and carboxylterminal FLAG or HSV tags were added to enable immunological detection of receptor subunits 1,2. […]
Functional expression of sweet taste receptors. The pig sweet taste receptor function was analyzed by transfecting the HEK293T-PEAK rapid Gα15 cells with taste receptor constructs described herein. […]
The transfected cells were analyzed with each of the sweeteners/compounds individually using a wide range of concentrations. The ligand binding and subsequent activation of the taste receptor causes an influx of Ca^2+ ions into the cell, which can be measured as an increase in fluorescent signaling using a microplate reader as shown in Figure 2.
The dose-response curves are calculated by using mean fluorescence values of multiple wells receiving the same concentration of sweetener/compound, and subtracting fluorescence changes of corresponding cells transfected with empty vector (ΔF). Signals are normalized to background fluorescence (ΔF/F). […]

[2] = target: T1, pig sweet taste receptors; settings: Daly et al.; cited from earlier work
pig intestine = settings: Daly et al.; cited from earlier work

| In vitro EC50 (mg/ml) for pig sweet taste receptors [1] | SMILES | activation of pig sweet taste receptors in vitro [2] | glucose uptake in the pig intestine (pig intestine) |
| --- | --- | --- | --- |
| 0.62 mg/mL | COc1ccc(CCC(=O)c2c(O)cc(O[C@@H]3O[C@H](CO)[C@@H](O)[C@H](O)[C@H]3O[C@@H]3O[C@@H](C)[C@H](O)[C@@H](O)[C@H]3O)cc2O)cc1O [NHDC # 020D066, 1-(4-((2-O-[6-Deoxy-α-L-mannopyranosyl]-β-D-glucopyranosyl)oxy)-2,6-dihydroxyphenyl)-3-[3-hydroxy-4-methoxyphenyl]-1-poranone] | – | – |
| 0.76 mg/mL | C=C1C[C@@]23CC[C@H]4[C@@](C)(CCC[C@@]4(C)C(=O)O[C@@H]4O[C@H](CO)[C@@H](O)[C@H](O)[C@H]4O)[C@@H]2CC[C@]1(O[C@@H]1O[C@H](CO)[C@@H](O)[C@H](O[C@@H]2O[C@H](CO)[C@@H](O)[C@H](O)[C@H]2O)[C@H]1O[C@@H]1O[C@H](CO)[C@@H](O)[C@H](O)[C@H]1O)C3 [Rebaudioside A] | – | – |
| – | COC(=O)[C@H](Cc1ccccc1)NC(=O)[C@@H](N)CC(=O)O [aspartame] (H-Asp-Phe-OMe) | do not activate pig sweet taste receptors in vitro | do not induce higher glucose uptake in the pig intestine |
